# Measurements: PubChem BioAssay (NCI)
# Several values for one entry are separate records, joined by “and”; a condition that tells them apart may be missing. Equal entries are not always repeated.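 All cell lines were grown in 96-well plates and treated with compound for 48 hours. Here, GI50 denotes the concentration required for 50% inhibition of growth. TGI: total growth inhibition.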
# Key:
# Test in all cases: NCI tumour cell line growth inhibition, 48 h
# [1] = test system: A498 renal
# [2] = test system: ACHN renal
# [3] = test system: HOP-62 NSCLC
# [4] = test system: KM12 colon
# [5] = test system: MOLT-4 leukemia
# [6] = test system: NCI-H226 lung
# [7] = test system: NCI-H23 lung
# [8] = test system: RXF 393 renal
# [9] = test system: SK-OV-3 ovarian
# [10] = test system: TK-10 renal
Structure (SMILES),GI50 [1] [µM],TGI [1] [µM],GI50 [2] [µM],TGI [2] [µM],GI50 [3] [µM],TGI [3],GI50 [4] [µM],TGI [4] [µM],GI50 [5] [µM],TGI [5],GI50 [6] [µM],TGI [6],GI50 [7] [µM],TGI [7],GI50 [8] [µM],TGI [8] [µM],GI50 [9] [µM],TGI [9],GI50 [10] [µM],TGI [10] [µM]
Cn1cc(C2=C(c3cccc(OCC(O)CO)c3)C(=O)NC2=O)c2ccccc21 (stereo unspecified),> 25,> 25,> 25,> 25,> 25,> 25 µM,> 25,> 25,> 25,> 25 µM,> 25,> 25 µM,> 25,> 25 µM,> 25,> 25,> 25,> 25 µM,> 25,> 25
O=C(Nc1ccc(Cl)cc1)Nc1ccc(Nc2nncc3ccccc23)cc1,3.79,18.8,1.12,7.12,3,14.9 µM,1.47,11.4,2.09,6.36 µM,2.46,12.5 µM,3.07,14.4 µM,4.28,21.4,3.05,17.7 µM,5.03,24.4
CC[C@H](CO)Nc1nc(NCc2ccccc2)n2ncc(C(C)C)c2n1,1.25,3.44,0.808,10.7,2.1,8.72 µM,0.711,2.79,2.18,9.46 µM,1.84,10.1 µM,1.71,7.79 µM,0.25,0.792,5.55,40.2 µM,2,10.9
Cc1cc(Cl)ccc1NC(=O)CC/C(CC(=O)C(C)C)=N\NC(=O)C[n+]1ccccc1,,> 100,,> 100,,> 100 µM,,> 100,,> 100 µM,,> 100 µM,,> 100 µM,,> 100,,> 100 µM,,> 100
C[CH2][Sn]([CH2]C)([O]C(=O)C(OC(C)=O)c1ccccc1)[O]C(=O)C(OC(C)=O)c1ccccc1 (stereo unspecified),19.8,35.6,17.3,31.1,> 100,> 100 µM,> 100,> 100,17.2,60.9 µM,29,92.7 µM,15.5,29.8 µM,18.6,33.1,> 100,> 100 µM,18.8,33
COc1c2c(nc3ccccc13)-c1cc3c(c(=O)n1C2)COC(=O)C3(O)CC(=O)N1CCOCC1 (stereo unspecified),,46.4,,14.7,,20.7 µM,,57.5,,5.03 µM,,22.9 µM,,8.05 µM,,26.9,,68.3 µM,,> 100
C1CN(SSN2CCOCC2)CCO1,> 100,> 100,81,> 100,78.5,> 100 µM,43.6,> 100,47.3,> 100 µM,> 100,> 100 µM,22.5,55.9 µM,21.8,41.4,> 100,> 100 µM,> 100,> 100
COc1ccc2c(c1)C(=O)c1c-2c(N(C)C)nc2ccccc12,> 100,> 100,> 100,> 100,> 100,> 100 µM,> 100,> 100,> 100,> 100 µM,> 100,> 100 µM,> 100,> 100 µM,> 100,> 100,> 100,> 100 µM,88.9,> 100
CC1=C(CO)C(=O)O[C@@H]([C@@H](C)[C@H]2CC[C@H]3[C@@H]4C[C@@H](O)[C@@]5(O)CC=CC(=O)[C@]5(C)[C@H]4CC[C@]23C)C1,,39.5,,75.2,,> 100 µM,,58.8,,> 100 µM,,> 100 µM,,49.4 µM,,68.6,,> 100 µM,,> 100
CCOC(=O)NC(=O)c1cn(CCN2CCN(c3ncnc4nc[nH]c34)CC2)c(=O)[nH]c1=O,,> 100,,> 100,,> 100 µM,,> 100,,> 100 µM,,> 100 µM,,> 100 µM,,> 100,,> 100 µM,,> 100
NC(=S)N/N=C/c1ncccc1N,,> 73.1,,,0.739,13.1 µM and 9.78 µM,5.38,> 100,1.04,44.8 µM and > 10 µM,1.01,8.24 µM and > 10 µM,,6.83 µM and > 3.07 µM,0.489,> 47.5,3.24,51.3 µM and > 10 µM,50.5,> 100
